Source: publication PMC8806001 (ACS Pharmacology & Translational Science, 2022)

What was measured:
SARS-CoV-2 PL^pro [1] = target: T1, SARS-CoV-2 PL^pro (Severe acute respiratory syndrome coronavirus 2, UniProt P0DTD1); test: cell-based
SARS-CoV-2 PL^pro [2] = target: T1, SARS-CoV-2 PL^pro; test: Thermal shift binding assay; details: effect on stability of PL^pro
MERS-CoV PL^pro = details: read-out: IC50 against MERS-CoV PL^pro; cited from earlier work
SARS-CoV PL^pro = details: read-out: IC50 against SARS-CoV PL^pro; cited from earlier work
SARS-CoV-2 PL^pro [3] = target: T1, SARS-CoV-2 PL^pro; assay type: biochemical; details: 200 nM PL^pro, 5 mM DTT, pH 7.5, 30 °C; highest concentration 60 μM

SMILES | Cytotoxicity in FlipGFP assay (in words) (293T cells) | FlipGFP EC50 (SARS-CoV-2 PL^pro [1]) | TSA binding result (in words) (SARS-CoV-2 PL^pro [2]) | EC50 (SARS-CoV-2 PL^pro [1]; FlipGFP EC50) [µM] | IC50 (MERS-CoV PL^pro) [µM] | IC50 (SARS-CoV PL^pro) [µM] | Validation FRET IC50 (SARS-CoV-2 PL^pro [3])
COCCn1c2c([n+](Cc3cnccn3)c1C)C(=O)c1ccccc1C2=O [YM155] | cytotoxic | not conclusive | no effect |  |  |  | 
C[C@H]1COC2=C1C(=O)C(=O)c1c2ccc2c1CCCC2(C)C [Cryptotanshinone] |  | not active | destabilization |  |  |  | 
Cc1coc2c1C(=O)C(=O)c1c-2ccc2c1CCCC2(C)C [Tanshinone IIA] |  | not active | denaturation of the protein (no melting peak) | > 20 |  |  | 
Cc1coc2c1C(=O)C(=O)c1c-2ccc2c(C)cccc12 [Tanshinone I] |  | not active | destabilization |  |  |  | 
Nc1nc2nc[nH]c2c(=S)[nH]1 [6-thioguanine] |  | not active | did not show binding |  | 24.4 | 5 | 
Sc1ncnc2nc[nH]c12 [6-mercaptopurine] |  | not active | not active |  | 26.9 | 21.6 | not active
Cc1cccc2c3c(ccc12)C1=C(C(=O)C3=O)[C@@H](C)CO1 [Dihydrotanshinone I] |  | not active | did not bind |  |  |  | 
